{
  "source": "patent US20150140015A1",
  "about": "“METHODS AND PHARMACEUTICAL COMPOSITIONS FOR THE TREATMENT OF PANCREATIC CANCER” (INSERM (Institut National de la Sante et de la Recherche …, priority 2013, published 2015)",
  "key": {"AsPC-1 cells": {"system": "AsPC-1 cells", "experiment": "Quantification of apoptotic cells by annexin V-PE labeling in AsPC-1 cells", "format": "cell-based, human", "conditions": "1 μM orexin-A, 48 hr", "method": "FIG. 4A-C. Effect of orexin-A on apoptosis in AsPC-1 cells. A, SHP-2 protein tyrosine phosphatase inhibitor, NSC-87877, blocks orexin-induced apoptosis. AsPC-1 cells were challenged with (black bars) or without (white bars) 1 μM orexin-A for 48 hr in the absence or presence of NSC-87877 (50 μM). Apoptosis was measured by determination of annexin V-PE binding, and results are expressed as the percentage of apoptotic cells; B and C: Indirect immunostaining of activated caspase-3 in AsPC-1 cells in the presence or absence of orexin-A. Paraformaldehyde-fixed AsPC-1 cells were challenged with (orexin-A) or without (basal) 1 μM orexin-A for 48 hr. Activated caspase-3 immunostaining is shown in B and scored in C. Results are means±SE of three separate experiments. ***p<0.001; ns, non-significant.\n(§1) AsPC-1, SW 1990, HPAF-II and HPAF-II/hOX1R cells (seeded at 5×10^4 cells/well) were grown in 24-well plates for 24 hr under the culture conditions described above. The culture medium was then replaced every 24 hr with fresh medium with or without orexin-A (GL Biochemicals) at a concentration of 1 μM in the presence or absence of the SHP-2 inhibitor, NSC-87877 (50 μM) (Calbiochem, VWR International SAS, France). At the end of the treatment (48 hr), apoptotic cells were determined using the Guava Nexin™ kit (Guava Technologies, Hayward, Calif., USA), which discriminates between apoptotic and non-apoptotic cells (Rouet-Benzineb P, Rouyer-Fessard C, Jarry A, et al. Orexins Acting at Native OX1 Receptor in Colon Cancer and Neuroblastoma Cells or at Recombinant OX1 Receptor Suppress Cell Growth by Inducing Apoptosis. J Biol Chem 2004; 279:45875-86), analyzed with the Guava Personal Cell Analysis (PCA) system (Merck-Millipore, Guyancourt, France), and counted (2,000 events) (Voisin et al, 2008, as above). Results are expressed as the percentage of apoptotic phycoerythrin-labelled Annexin V (Annexin V-PE) positive cells and are the means of 3 independent analyses."}, "[1]": {"system": "AsPC-1 cells xenografted in nude mice", "experiment": "Tumorigenicity assay: AsPC-1 cells xenografted in nude mice", "format": "in vivo", "conditions": "for decrease of tumor volume: 30-day treatment; for activated caspase-3 immunostaining in xenografted AsPC-1 tumors: orexin-A 1 μmoles/Kg daily i.p., 30 days", "method": "FIGS. 6A and B. Effect of daily inoculation of orexin-A on the growth of tumors developed by xenografting human PDCA cells in nude mice. AsPC-1 cells were inoculated in the flank of nude mice at day 0. Mice were injected daily intraperitoneally with 100 μl of orexin-A solutions starting at day 0 (◯) or day 14 (▴) or with 100 μl of PBS ([…]) for controls. A, the daily treatment corresponded to 1 μmoles of orexin-A/Kg. Inset represents the tumor weight measured at the end of the experiment after the mice were sacrificed; B, mice received 0.01, 0.1, 1 or 10 μmoles of orexin-A/kg. After 30 days of treatment, mice were sacrificed and tumor volume and weight were then recorded. The development of tumors was followed by caliper measurement. Data are the means±SE of 6 tumors in each group. *** p<0.01 versus control.\nFIG. 7A-F. Indirect immunostaining of activated caspase-3 in xenografted AsPC-1 tumors resected from nude mice. Paraformaldehyde-fixed xenografted AsPC-1 tumors from nude mice treated daily (B, D and F) by intraperitoneal injections with 1 μmoles/Kg orexin-A or not (A, C and E). […] OX1R immunostaining localisation was similar under control and orexin-A treatment conditions.\nControl mice received PBS.\nAfter dewaxing, rehydrating tumor paraffin sections, and antigen retrieval by pretreatment with high temperature at pH 9, immunohistochemical procedures were carried out using an automated immunohistochemical stainer according to the manufacturer's guidelines (Bond-Max slide stainer, Menarini, Leica Microsystems). For immunohistochemistry on cell lines, cells in pellets were fixed in formalin, embedded in cell blocks (Shandon Cytoblock; Thermo Scientific; USA) and cut into 3 μm sections. OX1R evaluation was performed in human PDAC, included in TMA, in xenografted tumors and in cell lines (AsPC-1, HPAF-II and HPAF-II/hOX1R). After antigen retrieval, 3 μm cells or tissue sections were incubated for 30 minutes with a polyclonal anti-OX1R antibody (My Bio Source; polyclonal goat; 1/300), rinsed, and then incubated with a biotinylated secondary rabbit anti-goat antibody (Vector BA-500; 1/400). Sections were rinsed and incubated with Streptavidin (TrekAvidin-HRP; Biocare Medical) and DAB ultraview detection kit (Bond Polymer Refine detection; DS9800; Leica Microsystems). Substitution of the primary antibody with PBS was used as a negative control. OX1R immunostaining was evaluated by two investigators (TV and AC) by calculating a score (0-300) obtained by multiplying the intensity (negative, 0; weak, 1; moderate, 2; and strong, 3) by the percentage of stained cells. The pattern of expression (cytoplasmic, membranous, and nuclear) was also recorded, and a mean score was calculated for each tumor. Internal positive controls consisted of normal pancreatic islets while the HEK/hOX1R cell line served as an external positive control. Specificity of the immunostaining was verified by incubation of OX1R antibody with its homologous immunogenic peptide or omission of the primary antibody. Apoptosis determination was performed in tumor cell lines (AsPC-1, HPAF-II and HPAF-II/hOX1R) and resected xenografts, treated or not with orexin-A. Three μm cell sections were immunolabelled for activated caspase-3 after antigen retrieval (ABGENT; cleaved caspase 3; polyclonal rabbit; 1/100) using a detection kit (Bond Polymer Refine detection; DS9800; Leica Microsystems). Substitution of the primary antibody with PBS was used as a negative control. External positive controls consisted of normal lymph nodes. Cleaved caspase-3 immunostaining was determined by calculating the percentage of tumor cells stained in 10 fields of xenografted tumor cells, each field comprising 500 tumor cells."}, "parental HPAF-II cells": {"system": "parental HPAF-II cells", "experiment": "Quantification of apoptotic cells by annexin V-PE labeling in parental HPAF-II cells", "format": "cell-based, human", "conditions": "1 μM orexin-A", "method": "FIGS. 5A and B. Effect of orexin-A on apoptosis in OX1R expressing recombinant OX1R/HPAF-II cells. A, Parental HPAF-II and recombinant OX1R/HPAF-II cells were challenged with (black bars) or without (white bars) 1 μM orexin-A for 48 hr in the absence or presence of the SHP-2 protein tyrosine phosphatase inhibitor, NSC-87877 (50 μM). Apoptosis was measured by determination of annexin V-PE binding. Results are expressed as the percentage of apoptotic cells, and are the means±SE of three separate experiments. ***p<0.001; ns, non-significant; B, paraformaldehyde-fixed HPAF-II cells and recombinant OX1R/HPAF-II cells were challenged with or without (Basal) 1 μM orexin-A for 48 hr. Indirect immunostaining of activated caspase-3 in parental HPAF-II cells (left panels) and recombinant OX1R/HPAF-II cells (right panels) in the presence (bottom panels) or tabsence (top panels) of orexin-A is illustrated in B.\nas §1"}},
  "note": "Entries after “also recorded” stand apart in the source; their conditions may differ.",
  "data": [
    {"substance": "orexin-A: 33 amino acid hypothalamic neuropeptide, OX1R agonist, SEQ ID NO:2; peptide from GL Biochemicals", "values": [
      {"measurement": "percentage of apoptotic cells (annexin V-PE)", "setting": "AsPC-1 cells", "value": "24.3%±1.4"},
      {"measurement": "decrease in tumor volume as compared to untreated mice", "setting": "[1]; 1 μmol/kg daily i.p. beginning the day cells were xenografted", "value": 48.8, "unit": "%"},
      {"measurement": "volume of established tumors", "setting": "[1]; 1 μmol/kg daily, started 14 days after cell inoculation", "value": "rapidly and strongly reduced"},
      {"measurement": "weight of tumors, treatment from day 0 versus from day 14", "setting": "[1]; 1 μmol/kg daily, tumors resected after sacrifice", "value": "No differences"},
      {"measurement": "tumoral cell death (Hemalum Eosin Safran staining)", "setting": "[1]; 1 μmoles/Kg orexin-A daily i.p.", "value": "induced tumoral cell death"},
      {"measurement": "decrease of tumor volume", "setting": "[1]; 0.01 moles orexin-A/kg (so in the source)", "value": 34.4, "unit": "%"},
      {"measurement": "decrease of tumor volume", "setting": "[1]; 0.1 moles orexin-A/kg (so in the source)", "value": 30.6, "unit": "%"},
      {"measurement": "decrease of tumor volume", "setting": "[1]; 1 moles orexin-A/kg (so in the source)", "value": 46.7, "unit": "%"},
      {"measurement": "decrease of tumor volume", "setting": "[1]; 10 moles orexin-A/kg (so in the source)", "value": 52.8, "unit": "%"},
      {"measurement": "decline of tumor progression", "setting": "[1]; Example 1, Orexin-A injection", "value": 49, "unit": "%"},
      {"measurement": "activated caspase-3 immunostaining in xenografted AsPC-1 tumors", "setting": "[1]", "value": "intense staining"},
      {"measurement": "activated caspase-3 immunostaining in xenografted AsPC-1 tumors", "setting": "[1]; listed as Orexin-A", "value": "strong immunostaining; also recorded: Induction of apoptosis was observed"},
      {"measurement": "induction of apoptosis", "setting": "parental HPAF-II cells; 48 hr, untransfected parental HPAF-II cells", "value": "did not induce apoptosis"},
      {"measurement": "annexin-V positive apoptotic cells", "setting": "parental HPAF-II cells; untransfected cells", "value": "2.1%±0.4"}
    ]}
  ]
}
